Measurements taken from US6706663B2, “Herbicidal 3-heterocyclic substituted benzisothiazole and benzisoxazole compounds” (Wyeth, priority 2000, dated 2004).

Legend:
SETVI (Setaria viridis) [1] = experiment: Postemergence herbicidal evaluation; type: in vivo, (L.) Beau; conditions: postemergence
Summary of the method: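 First, seedlings are raised in flats for about two weeks. Next, compound dispersed in 50/50 acetone/water with 0.5% TWEEN 20 is sprayed at 40 psi to deliver about 0.0040–1.000 kg/ha. Plants are then maintained in the greenhouse and rated 0-9 after four to five weeks.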

ORYSAT (Rice, Tebonnet) [2] = experiment: Flooded paddy, post-transplant rice tolerance; type: in vivo, Oryza sativa, (L.) Tebonnet; conditions: flooded paddy, post-transplant rice, rated 3-4 weeks after treatment, 0-9 rating scale
Summary of the method: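 Visual 0–9 injury rating against a control, covering stand, vigor, malformation, size, chlorosis and overall appearance. Treatment was post-transplant onto flooded containers (water 1.5–3 cm deep, silt loam) holding two ten-day-old cv. Tebonnet seedlings, maintained on greenhouse benches.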

[3] = tested on: ECHCG (Echinochloa crus-galli); experiment: Preemergence herbicidal evaluation; type: in vivo, (L.) Beau; conditions: rated 4-5 weeks after treatment
Summary of the method: (§1)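 Visual 0-9 rating versus untreated control, taken four to five weeks post-treatment, scoring stand, vigor, malformation, size, chlorosis and overall appearance. Compound applied as aqueous acetone spray to freshly seeded soil cups, then kept under standard greenhouse care.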

SETVI (Setaria viridis) [4] = experiment: Preemergence herbicidal evaluation; type: in vivo, (L.) Beau; conditions: rated 4-5 weeks after treatment
Summary of the method: as §1

ORYSAT (Rice, Tebonnet) [5] = experiment: Postemergence herbicidal evaluation; type: in vivo, Oryza sativa, (L.) Tebonnet; conditions: postemergence
Summary of the method: (§2)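 Visual 0–9 injury scores versus control plants, covering stand, vigour, malformation, size, chlorosis and general appearance, taken four to five weeks post-spray and averaged over replicate tests. Plants were sprayed at roughly two weeks old and held on greenhouse benches.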

[6] = tested on: ABUTH (Abutilon theophrasti); experiment: Preemergence herbicidal evaluation; type: in vivo, Medic.; conditions: rated 4-5 weeks after treatment
[7] = tested on: MOOVA (Monochoria vaginalis); experiment: Flooded paddy, preemergence weed control; type: in vivo, Presl.; conditions: rated 3-4 weeks after treatment, 0-9 rating scale
Summary of the method: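 Visual 0-9 rating versus control, scoring stand, vigor, malformation, size, chlorosis and overall appearance. Silt loam soil, propagules in top 0.5 cm; flood depth 1.5–3 cm held for the whole test; greenhouse.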

[8] = tested on: TRZAWR (Wheat, Winter, cv Riband); experiment: Postemergence herbicidal evaluation; type: in vivo, Triticum aestivum; conditions: postemergence
Summary of the method: as §2

Row | Structure (SMILES) | SETVI herbicidal rating (SETVI (Setaria viridis) [1]; rate 0.0320 kg/ha) | SETVI herbicidal rating (SETVI (Setaria viridis) [1]; rate 0.0620 kg/ha) | herbicidal rating, ORYSAT (rice tolerance) (ORYSAT (Rice, Tebonnet) [2]; rate 0.0080 kg/ha) | herbicidal rating, ORYSAT (rice tolerance) (ORYSAT (Rice, Tebonnet) [2]; rate 0.0320 kg/ha) | herbicidal rating, ORYSAT (rice tolerance) (ORYSAT (Rice, Tebonnet) [2]; rate 0.1250 kg/ha) | Preemergence herbicidal rating ECHCG ([3]; Rate 0.0620 kg/ha) | Preemergence herbicidal rating ECHCG ([3]; Rate 0.1250 kg/ha) | Preemergence herbicidal rating ECHCG ([3]; Rate 0.2500 kg/ha) | Preemergence herbicidal rating SETVI (SETVI (Setaria viridis) [4]; Rate 0.0620 kg/ha) | Preemergence herbicidal rating SETVI (SETVI (Setaria viridis) [4]; Rate 0.1250 kg/ha) | Preemergence herbicidal rating SETVI (SETVI (Setaria viridis) [4]; Rate 0.2500 kg/ha) | ORYSAT herbicidal rating (ORYSAT (Rice, Tebonnet) [5]; rate 0.0320 kg/ha) | ORYSAT herbicidal rating (ORYSAT (Rice, Tebonnet) [5]; rate 0.0620 kg/ha) | Preemergence herbicidal rating ABUTH ([6]; Rate 0.0620 kg/ha) | Preemergence herbicidal rating ABUTH ([6]; Rate 0.1250 kg/ha) | Preemergence herbicidal rating ABUTH ([6]; Rate 0.2500 kg/ha) | herbicidal rating, MOOVA ([7]; rate 0.0080 kg/ha) | herbicidal rating, MOOVA ([7]; rate 0.0320 kg/ha) | herbicidal rating, MOOVA ([7]; rate 0.1250 kg/ha) | TRZAWR herbicidal rating ([8]; rate 0.0320 kg/ha) | also measured
1 | Cn1c(C(F)(F)F)cc(=O)n(-c2ccc3snc(-c4sccc4CBr)c3c2)c1=O [Compound 80, 3-[3-[3-(bromomethyl)-2-thienyl]-1,2-benzisothiazol-5-yl]-1-methyl-6-(trifluoromethyl)uracil] | 2.0 | 3.0 | 2.5 | 5.5 | 8.0 | 0.5 | 2.0 | 6.5 | 1.5 | 4.5 | 7.5 | 3.5 | 3.5 | 4.0 | 9.0 | 9.0 | 0.0 | 9.0 | 9.0 | 3.0 | TRZAWR herbicidal rating ([8]; rate 0.0620 kg/ha): 3.5
2 | CC1=CC(C)(C)OC(c2nsc3ccc(-n4c(=O)cc(C(F)(F)F)n(C)c4=O)cc23)C1 (stereo not drawn) [Compound 65, 3-[3-(3,6-dihydro-4,6,6-trimethyl-2H-pyran-2-yl)-1,2-benzisothiazol-5-yl]-1-methyl-6-(trifluoromethyl)uracil] | 3.0 | 7.0 | 0.0 | 0.0 | 0.0 | 9.0 | 9.0 | 9.0 | 9.0 | 9.0 | 9.0 | 4.0 | 4.5 | 9.0 | 9.0 | 9.0 | 0.0 | 0.0 | 3.0 | 4.0 | TRZAWR herbicidal rating ([8]; rate 0.0620 kg/ha): 5.0
3 | Cc1sccc1-c1nsc2ccc(-n3c(=O)cc(C(F)(F)F)n(C)c3=O)cc12 [Compound 68, 2,4(1H,3H)-pyrimidinedione, 1-methyl-3-[3-(2-methyl-3-thienyl)-1,2-benzisothiazol-5-yl]-6-(trifluoromethyl)-] | 4.0 | 8.0 | 1.5 | 2.5 | 3.5 | 8.5 | 9.0 | 9.0 | 9.0 | 9.0 | 9.0 | 4.0 | 5.0 | 8.5 | 9.0 | 9.0 | 7.0 | 9.0 | 9.0 | 4.0 | TRZAWR herbicidal rating ([8]; rate 0.0620 kg/ha): 4.5
